In US20250114430A1, “MODIFIED PEPTIDOMIMETICS AND METHODS OF USE” (The University of North Carolina at Chapel Hill, priority 2021, published 2025):
“Also recorded” adds a separate entry of the source. No end group written: not given here.

How the values were obtained:
[1] = system: bleomycin-induced lung injury; test: Bleomycin-induced lung fibrosis in mice; assay type: in vivo; set-up: dose or concentration left out as unconfirmed
Method: Mice were exposed to 4 doses of bleomycin as described from days 1-37, then fibrosis was allowed to form from days 38-60. The mice were then dosed daily with inhaled […] (1 mg/kg) from days 61-82. Mice were sacrificed on Day 83 and histology was performed.
ELD607 reverses fibrosis in mice. Bleomycin-exposed mice are a well-established model to study IPF. Based on ATS guidelines, mice were dosed with […] bleomycin per dose 4 times over 37 days to induce fibrosis. From day 61, mice were then treated intranasally with […] ELD607 daily for 20 days (FIG. 40 panel A). Lungs were then collected and prepped for H&E staining and fibrosis was measured using the Ashcroft scaling system.

αSMA [2] = test: αSMA expression in fibroblasts after three days of TGFβ (confocal microscopy); assay type: cell-based
Method: After three days of TGFβ induced αSMA deposition, ELD607 was then added for 24 h at 10 μM and αSMA expression was assessed by confocal microscopy. Data are shown as mean+/−SEM and data were analyzed by ANOVA.
FIG. 39A-39B show ELD607 reduces αSMA deposition. After three days of TGFβ induced αSMA deposition, ELD607 or other compounds (pirfenidone, nintedanib, zigovractin, YM-58483) were then added as indicated for 24 h at 10 μM. […] Data are shown as mean+/−SEM and data were analyzed by ANOVA.
(§1) In vitro Methods: Fibroblasts were exposed to 10 nM TFGβ for 3-7 days as indicated. Then, ELD607 was added overnight. Fibroblasts were then fixed in paraformaldehyde, stained with primary a smooth muscle actin (αSMA) antibody, and imaged by confocal microscopy. Myofibroblasts were exposed to ELD607 without any TGFβ pre-treatment. In some cases, Western blotting was used to probe for αSMA.
Fibroblasts were exposed to TGFβ for three days and then exposed to vehicle or the indicated compounds. Cells were then fixed, stained for αSMA, and expression measured by confocal microscopy.

Orai1 [3] = molecular target: T1, Orai1 (Homo sapiens, UniProt Q96D31); test: Thapsigargin / Ca^2+ add back assay in HEK293T cells with anti-Orai1 shRNA; assay type: cell-based; set-up: Endogenous Orai1/store operated Ca^2+ influx have been extensively studied in HEK293T cells; endogenous in cells; host or cells: HEK293T
T1 sequence (Q96D31 whole entry): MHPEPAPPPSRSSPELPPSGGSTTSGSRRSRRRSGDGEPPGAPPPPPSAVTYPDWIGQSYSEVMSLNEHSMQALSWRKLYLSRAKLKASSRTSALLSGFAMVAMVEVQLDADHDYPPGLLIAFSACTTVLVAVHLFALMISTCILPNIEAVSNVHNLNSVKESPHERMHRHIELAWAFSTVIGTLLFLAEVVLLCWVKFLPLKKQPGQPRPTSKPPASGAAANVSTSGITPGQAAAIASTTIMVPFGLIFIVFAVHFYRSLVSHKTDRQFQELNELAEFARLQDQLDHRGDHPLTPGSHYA
Method: HEK293T cells were transfected with anti-Orai1 shRNA for 48 h and the change in Fluo4 fluorescence was measured. Cells were then exposed to vehicle or […] ELD607 for 1 h. Thapsigargin was then added followed by extracellular Ca^2+ to differentiate ER Ca^2+ release and SOCE. n=8 cultures per condition.
ELD607 requires Orai1 expression to inhibit Ca^2+ signaling. […] Using this approach, curves were fitted to the data and the 50% inhibitory concentrations (IC50S) were calculated.

αSMA [4] = test: TGFβ-induced myofibroblast differentiation of CCL-210 fibroblasts (αSMA); assay type: cell-based, human; conditions: CCL-210, 7 days 10 ng/mL TGFβ, then ELD607 for 48 hours
Method: FIG. 36A-36C show ELD607 reduces TGFβ-induced myofibroblast formation. FIG. 36A is a schematic showing fibroblast to myofibroblast formation and αSMA deposition. […] Data are mean data from Western blots in normal fibroblasts.
as §1, with “Then, ELD607 was added overnight.” left out
ELD607 reverses myofibroblast differentiation. Increased alpha smooth muscle actin (αSMA) deposition is a hallmark of damaged IPF lungs, and is a common marker for identifying when fibroblasts turn into myofibroblasts—key drivers of fibrosis, and it is generally considered that less αSMA is beneficial (FIG. 36A). It was then determined whether ELD607 alters myofibroblast formation. The human lung fibroblast cell line CCL-210 was treated for 7 days with 10 ng/mL TGFβ to induce myofibroblast differentiation.

SCNN1B mice = test: SCNN1B (βENaC) overexpressing mice, chronic pulmonary inflammation; assay type: in vivo
Method: SCNN1B and littermate control mice were exposed to ELD607 or vehicle intranasally on a daily basis for 11 days, starting on day 1 post-partum.
FIG. 32 panel A: Mice were infected with P. aeruginosa for 24 h; then, 0.5 mg/kg ELD607 was added intratracheally. BAL was collected 24 h later to determine cell counts. SCNN1B mice were given 0.5 mg/kg ELD607 daily for 11 days before sacrifice and BAL collection. FIG. 32 panel B: Survival of bENaC mice.
Additional models were tested such as the house dust mite (HDM) allergic lung inflammation model (FIG. 20); and SCNN1B-overexpression, wherein mice develop mucus obstruction and spontaneous pulmonary inflammation (FIG. 21).
Repeated ELD607 exposure reduces chronic inflammation in βENaC overexpressing mice. We added ELD607 to βENaC overexpressing mice, which spontaneously develop chronic infection and neutrophilia and have increased mortality (FIG. 32, panel A).

HEK293 T cells = test: Cytotoxicity in HEK293 T cells (calcein); assay type: cell-based; conditions: 100 μM, 24 h
Method: FIG. 28 panels C and D show cell viability per arbitrary units (left) and transepithelial resistance (right) of vehicle vs. ELD607 before and after treatment.
ELD607 is non-toxic in vitro and in vivo. To investigate potential cytotoxic effects of ELD607, […] were exposed to 100 μM ELD607 for 24 h. Cytotoxicity was assessed by exposing cells to calcein to label live cells and fluorescence read by multi-plate reader. […] Primary human bronchial epithelial cultures were exposed to 1 mM ELD607 or vehicle control (saline) for 24 h. Cytotoxicity was assessed by confocal microscopy using calcein and propidium iodide to label live and dead cells respectively. […] Transepithelial resistance was also measured before and after treatment as a measure of epithelial integrity.

Orai1 [5] = molecular target: T1, Orai1; test: Orai1 immunocytochemistry on immune cells of ARDS/bacterial pneumonia patients; assay type: cell-based; set-up: immune cells of ARDS/bacterial pneumonia patients; endogenous in cells; host or cells: immune cells from tracheal aspirates of ARDS/bacterial pneumonia patients; conditions: paired patient samples
Text: We then performed Orai1 immunocytochemistry on paired samples of immune cells of ARDS/bacterial pneumonia patients. Cells derived from each patient were exposed to either vehicle, ELD607, or scrambled ELD607 (FIG. 27, panels D and E).

HEK293T cells = test: Inhibition of Ca^2+ influx in HEK293T cells after pre-incubation of peptide in CF sputum; assay type: cell-based; conditions: peptide incubated 6 h in CF sputum, then HEK293T cells, thapsigargin

VHDIVNMLIRG [ELD607, VHDIVNMLIRG]
lung damage (Ashcroft) ([1]; 25 intranasally daily for 20 days from day 61): significantly less lung damage than vehicle controls | acute and chronic bleomycin-induced lung injury ([1]; lower dose of 19, different time course): reduces acute and chronic bleomycin-induced lung injury | reduction in αSMA versus pirfenidone, nintedanib, zigrocractin and YM-58483 (αSMA [2]; 10 μM, 24 h): significantly greater reduction in αSMA than all other compounds tested | αSMA expression, dose dependence (αSMA [2]; TGFβ three days, then ELD607 24 h): dose-dependently reduced αSMA expression | thapsigargin-stimulated Ca^2+ release from the ER (Orai1 [3]; absence of extracellular Ca^2+): had no effect on this component | effect on Ca^2+ homeostasis after shRNA knockdown of Orai1 (Orai1 [3]; anti-Orai1 shRNA 48 h): no longer able to affect Ca^2+ homeostasis | Ca^2+ influx (Orai1 [3]; extracellular Ca^2+ added back): reduced Ca^2+ influx | αSMA levels (western blot and immunofluorescence) (αSMA [4]): significantly reduced | survival of βENaC overexpressing mice (SCNN1B mice; daily intranasal 0.5 mg/kg): increased survival | neutrophils in SCNN1B (βENaC) mice (SCNN1B mice; daily intranasal 0.5 mg/kg, 11 days): significantly reduced lung neutrophilia; also recorded: significantly decreased BAL neutrophil levels | BAL cells in WT littermate mice (SCNN1B mice; daily intranasal, 11 days): no effect on WT mice | cell viability (calcein) (HEK293 T cells): not significantly different to vehicle control | Orai1 levels (Orai1 [5]): significant reduction in Orai1 levels | inhibition of Ca^2+ influx after pre-exposure to CF sputum (HEK293T cells): retained full functionality
